For one data set, the system named is I45 cells. In words: Cytotoxicity in I45 cells with subcellular eDHFR-YFP. Format: cell-based, human. Conditions: for RBE: ref. cytoplasmic. As to the method:
(§1) Wild-type and eDHFR-YFP-expressing I45 and SKOV3 cells were seeded on 96-well plates (Corning #3603) at the density of 1,000 cells/well and 3,000 cells/well, respectively, in complete growth media 24 hours before the assay. The following five treatment conditions were applied in complete growth media: 200 μCi/mL ~15 μCi/mL [^211At]At-TMP, 120 μCi/mL-15 μCi/mL free ^211At, 120 μCi/mL-15 μCi/mL [^211At]At-TMP+10 μM TMP, 10 nM-1 μM doxorubicin, and 40 μM−1 mM TMP. After 72 hours of incubation, the surviving fraction of the cells was quantified using CellTiter-Glo (Promega #G9243). See, Makvandi, Molecular cancer therapeutics. 2019; 18(7):1195-204. The assay was performed three times in triplicates. The effective concentration for 50% cell death (EC50) was determined for each treatment condition by fitting the surviving fractions into a non-linear sigmoidal dose-response curve. For eDHFR-YFP-positive cells, the [^211At]At-TMP treatment concentrations were converted to the number of ^211At decays/cell, using the median number of receptors/cell (obtained from YFP fluorescence) and Kd of [^211At]At-TMP. See, Lee, Journal of nuclear medicine. 2020; 61(6):850-6.
(§2) For comparison to the nuclear S-values, the observed cytotoxicity per ^211At decay was also expressed relative to cytoplasmic eDHFR-YFP. […] Finally, the ratio between the isolated cytotoxicity and nuclear S-value was calculated as the RBE for eDHFR-YFP in each subcellular compartment.
(§3) Supplemental Method 2. Calculation of the relative cytotoxicity of ^211At decay in different subcellular compartments. • By the linear-quadratic model for targeted alpha therapy,
(§4) (Survival)=e^−αD-βD^2≈e^−αD • Let N=number of ^211At decays/cell at EC50. Then, the following is obtained:
(§5) ln(0.5)=−αD=−TN • where T is the product of S-value and α, representing cytotoxicity per decay. Let F=fraction of eDHFR in each subcellular compartment. Then, the following can be written:
(§6) [formula] • where capital letters denote the microscopically observed subcellular location of eDHFR and lowercase letters denote the genetically targeted location of eDHFR.
(§7) The measured values of F (FIG. 19) and N (FIG. 28C) were then used to solve for T. DNA-targeted eDHFR observed in the nucleus is assumed to be 100% DNA-bound, and for SKOV3, Nc≈Nm is applied based on the lack of significant difference in EC50.
(§8) Finally, the T values are normalized with Tc to obtain the relative cytotoxicity of ^211At decay in each subcellular compartment compared to the cytoplasm.

In the next data set the test system is SKOV3 cells. Description: Cytotoxicity in SKOV3 cells with subcellular eDHFR-YFP. Format: cell-based, human. Conditions: for RBE: ref. cytoplasmic. As to the method: as §1, §2, §3, §4, §5, §6, §7, §8
A further data set deals with T1, eDHFR-YFP (Escherichia coli, UniProt P0ABQ4).
T1 sequence (P0ABQ4 1-159): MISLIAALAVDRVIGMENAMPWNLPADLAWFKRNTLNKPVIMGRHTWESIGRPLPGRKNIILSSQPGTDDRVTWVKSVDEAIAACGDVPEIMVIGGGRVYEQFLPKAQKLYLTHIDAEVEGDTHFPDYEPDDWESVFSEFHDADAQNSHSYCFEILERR
In words: Radioligand binding to eDHFR-YFP expressing cells. Details: species or system E. coli. The method, then: Due to the high specific activity of [^211At]At-TMP that limits its working concentration to pM range, [^125I]I-TMP was used for saturation binding studies to determine Bmax.
eDHFR-YFP-positive I45 and SKOV3 cells were plated on 96-well plates (Corning #9102) at the density of 25,000 cells/well and 40,000 cells/well, respectively, in complete growth media 24 hours before the assay. […] After incubation at 37 °C for 90 minutes, the wells were aspirated and washed twice with ice-cold PBS. The radioactivity in each well was measured with a Perkin Elmer Wizard gamma counter. The assay was performed three times in triplicates. […] See, Swillens, Molecular pharmacology. 1995; 47(6):1197-203. The corresponding EC50 values were plotted against the receptor concentration/2 to determine the Kd. See, Hulme, British journal of pharmacology. 2010; 161(6):1219-37. The Bmax values were correlated with the total YFP florescence from the wells, with a correction factor of 2.5 and 2.2 for membrane-bound eDHFR-YFP in I45 and SKOV3, respectively, in order to account for decreased fluorescence per molecule from addition of the membrane localization signal to YFP. See, Wu, Science. 2005; 310(5746):310-4; and Bakholdina, Molecules. 2021; 26(13).
For determination of the Kd of [^211At]At-TMP, the binding assay protocol was repeated in I45 and SKOV3 cells expressing cytoplasmic eDHFR-YFP, using 150 μL of 0.06-60 nM [^125I]I-TMP±10 μM TMP for half of each 96-well plate and 50-260 μL of […] [^211At]At-TMP±10 μM TMP for the remaining half. The Bmax of each plate determined from [^125I]I-TMP binding was divided by the assay volumes used for [^211At]At-TMP to calculate the total receptor concentration ([RT]) in each [^211At]At-TMP well. The ligand depletion (δ) in each [^211At]At-TMP well was obtained by dividing the bound radioactivity by total added radioactivity. The assay was performed four times in triplicates. As derived in Supplemental Methods 1, δ^−1 was plotted against [RT]^−1 to determine the Kd as the slope of the linear best-fit line.
Supplemental Method 1. Measurement of the dissociation constant (Kd) of [^211At]At-TMP binding to eDHFR under non-saturating, ligand-depleting conditions. When [Ligand]<<Kd, ligand depletion (6) at equilibrium is
where [R] is the free receptor concentration and [RT]is the total receptor concentration. Since 6 is non-zero, taking the reciprocal of both sides of the equation yields
[formula] • If a δ^−1 vs. [RT]^−1 graph where y=δ^−1 and x=[RT]^−1 is plot,
Therefore, the slope of the linear best-fit line represents the Kd and the y-intercept is 1.

The nature of data set [1]: In vitro stability in RPMI 1640 medium. Format: physicochemical. To be noted: 37 °C, up to 6 hours, radio-HPLC. The method, then:
The specific activity of [^211At]At-TMP and [^125I]I-TMP was determined by comparison of radioactivity to the area under 288-nm ultraviolet light peak on radio-HPLC. The in vitro stability of [^211At]At-TMP was examined with incubation in Roswell Park Memorial Institute (RPMI) 1640 medium at 37 °C for up to 6 hours, followed by radio-HPLC analysis.

For another data set, the system named is I45 and SKOV3 cells. In words: Cytotoxicity in wild-type and eDHFR-YFP-expressing I45 and SKOV3 cells. Format: cell-based, human. As to the method: After 72 hours of incubation, the surviving fraction of the cells was quantified using CellTiter-Glo (Promega #G9243). See, Makvandi, Molecular cancer therapeutics. […] The assay was performed three times in triplicates. […] See, Lee, Journal of nuclear medicine.

The subject of another data set is hamster fibroblasts. Conditions: predominantly nuclear lead-212 vs predominantly cytoplasmic polonium-210; cited from earlier work.

“Also recorded” adds a separate entry of the source.

In general, Kd refers to a measure of binding affinity in units of concentration. As for `COc1cc(Cc2cnc(N)nc2N)cc([At])c1OC` [[^211At]At-TMP], the “relative cytotoxicity with reference to cytoplasmic eDHFR” value amounted to 10 with I45 cells (I45, DNA-bound); 2.8 in the data set on I45 cells (I45, membrane-bound); 7.4 in the data set on I45 cells (I45, nuclear); 13 in the data set with SKOV3 cells (SKOV3, DNA-bound); 1.0 in the data set with SKOV3 cells (SKOV3, membrane-bound); 8.5 in the data set with SKOV3 cells (SKOV3, nuclear). Also, the RBE stood at 3.1 in the data set on I45 cells (I45, DNA-bound); 3.5 with I45 cells (I45, membrane-bound); 2.3 in the data set with I45 cells (I45, nuclear); 3.2 in the data set on SKOV3 cells (SKOV3, DNA-bound); 1.4 in the data set with SKOV3 cells (SKOV3, membrane-bound); 2.0 with SKOV3 cells (SKOV3, nuclear). In addition, the “cytotoxicity, membrane-bound compared to cytoplasmic eDHFR” value with I45 cells (I45, P=0.005) is “higher cytotoxicity compared to cytoplasmic eDHFR”. The “binding affinity compared to [^125I]I-TMP” value at eDHFR-YFP (I45 and SKOV3 cells) is given as “lower binding affinity”. Moreover, the Kd on eDHFR-YFP (I45 and SKOV3 cells) is 2.5 to 4.8 nM; on eDHFR-YFP (I45 cells), 4.8 ± 0.1 nM; on eDHFR-YFP (SKOV3 cells), 2.5 ± 0.2 nM. Also, in data set [1], the “in vitro stability in aqueous media” value is “stable at 37 °C in aqueous media”. Further, the “cytotoxicity in eDHFR-expressing compared to wild-type cells” value in the data set with I45 and SKOV3 cells (72 h) is reported as “significantly higher cytotoxicity”. For the same compound, in the data set with I45 and SKOV3 cells (DNA-bound P=0.017 I45, P=0.012 SKOV3, nuclear P=0.0006 I45, P=0.004 SKOV3), the “cytotoxicity per bound decays/cell, DNA-bound and nuclear eDHFR” value is “the highest cytotoxicity was observed with DNA-bound eDHFR (P=0.017 in I45 and P=0.012 in SKOV3), followed by nuclear eDHFR”. Further, the pharmacologic cytotoxicity entry with I45 and SKOV3 cells (up to 34 μM (so in the source)) was “absence of pharmacologic cytotoxicity”. Besides, the “difference in cytotoxicity wild-type vs eDHFR-expressing, blocked” value in the data set on I45 and SKOV3 cells (with 10 μM cold TMP) was “disappearance; also recorded: comparable across the wild-type and eDHFR-YFP-expressing cells”.
With lead-212, the “RBE relative to gamma irradiation” value in the data set with hamster fibroblasts is listed as 4.

The values above are taken from patent publication US20260364213A1, “RADIOLABELED COMPOUNDS OF TRIMETHOPRIM AND USES THEREOF” (THE TRUSTEES OF THE UNIVERSITY OF PENNSYLVANIA, priority 2023, published 2026).
